This note sets out measurements from patent US7585873B2, “1-(aminoalkyl)-3-sulfonylazaindoles as 5-hydroxytryptamine-6 ligands” (Wyeth, priority 2002, dated 2009).

The structures appear in SMILES notation. Read-outs that look alike come from different tables or passages of the source.

Data set [1] has as its target T1, human cloned 5-HT6 receptors (Homo sapiens, UniProt P50406).
T1 construct: expressed in transfected cells; host or cells: Hela cells
The data set can be described thus: 5-HT6 binding affinity, [3H]-LSD displacement on membranes of Hela cells expressing human cloned 5-HT6 receptors. Particulars: read-out: 5-HT6 Binding Ki.

The mark [2] stands for this setting: [3H]-LSD 3.0 nM, Hela cell membranes, 120 min at room temperature.

T1 sequence (P50406 whole entry): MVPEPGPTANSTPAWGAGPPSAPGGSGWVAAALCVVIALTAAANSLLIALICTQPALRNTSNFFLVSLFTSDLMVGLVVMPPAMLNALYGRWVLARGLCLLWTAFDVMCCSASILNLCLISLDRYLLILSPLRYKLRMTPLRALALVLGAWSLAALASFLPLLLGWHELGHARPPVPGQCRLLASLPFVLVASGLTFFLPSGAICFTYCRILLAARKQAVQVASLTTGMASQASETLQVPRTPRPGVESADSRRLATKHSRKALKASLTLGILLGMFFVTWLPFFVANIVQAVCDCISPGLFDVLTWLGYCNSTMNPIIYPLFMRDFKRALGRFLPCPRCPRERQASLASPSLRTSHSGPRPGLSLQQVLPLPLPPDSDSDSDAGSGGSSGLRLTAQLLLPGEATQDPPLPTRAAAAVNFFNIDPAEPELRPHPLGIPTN

`CCN(CC)CCn1cc(S(=O)(=O)c2cccc(Cl)c2)c2cccnc21` [Example 35] had a melting point of 74 to 76 °C. For the same compound, the inhibitory constant (Ki) in data set [1] (setting [2]) is 20 nM.
Take `CNCCn1cc(S(=O)(=O)c2cccc(F)c2)c2cccnc21` [Example 59]: the melting point fell in the range of 255 to 260 °C. In addition, in data set [1], the Ki came out at 1 nM.
`CNCCn1cc(S(=O)(=O)c2c(Cl)nc3sccn23)c2cccnc21` [Example 58] had a melting point of 182 to 186 °C. For the same compound, in data set [1] (setting [2]), the inhibition constant Ki is 1 nM.
Regarding `COc1ccc2c(n1)c(S(=O)(=O)c1cccc(F)c1)cn2CCN(C)C` [Example 79], the melting point lay in the range of 208 to 212 °C. Besides, the inhibitory constant (Ki) in data set [1] (setting [2]) is 11 nM.
For `COc1ccc2c(n1)c(S(=O)(=O)c1cccc3ccccc13)cn2CCN(C)C` [Example 80], the melting point was 233 to 235 °C. Also, the Ki in data set [1] (setting [2]) worked out at 2 nM.
Compound `CNCCn1cc(S(=O)(=O)c2cccc(C)c2)c2cccnc21` [Example 62] gave a melting point of 244 to 246 °C. The inhibitory constant (Ki) in data set [1] (setting [2]) was determined as 1 nM.
`Cc1c(S(=O)(=O)c2cn(CCN(C)C)c3ncccc23)sc2ccc(Cl)cc12` [Example 36]: the melting point lay within 212 to 215 °C. Further, the inhibition constant (Ki) in data set [1] (setting [2]) was 102 nM.
The compound `Cc1cccc(S(=O)(=O)c2cn(CCN(C)C)c3ncccc23)c1` [Example 40] registered a melting point of 195 to 197 °C. Also, the inhibition constant (Ki) in data set [1] (setting [2]) is 10 nM.

The Ki is a measure of affinity in units of concentration, obtained from inhibition or displacement. The term melting point denotes the temperature of the solid-liquid transition.
